3 molecules from US9023831B2, “Methods and compositions of inhibiting complement and cellular activation with Dextran Sulfate” (Novelmed Therapeutics, Inc., priority 2007, dated 2015) can be followed below.

Experiment [1] has as its system platelets (CD62P staining). Description: Platelet activation (CD62P flow cytometry) after tubing loop. As to conditions: Aspirin 100 μg/ml added to NM3014 prior to tubing loop rotation. The class given is cell-based, human. The protocol: It was expected that platelet activation would also be inhibited. […] The inhibition of platelet activation was measured using flow cytometry following CD62P staining of activated platelets.
It was expected that platelet activation will also be inhibited. […] The inhibition of platelet activation was measured using flow cytometry following CD62P staining of activated platelets.
While platelets bear C3a receptors, it is not clear how platelets were being activated. In an effort to downregulate platelet activation, we performed an experiment in which Dextran Sulfate was utilized in combination with aspirin. […] These surprising results present Dextran Sulfate as a lead complement inhibitory drug that down regulates both complement and cellular activation in heparinized whole human blood. Shown in FIGS. 10d and 10e are results from this study.
For CD62P labeling of platelets, 100 μl of diluted blood collected from the circuits were immediately incubated with 20 μl of PE-anti-CD62P antibody (Becton Dickinson) for 20 minutes at room temperature in a polypropylene tube, Then the mixture was treated with FACS Lysing Solution as described above. The microcentrifuge tubes were centrifuged at 12000. g for 5 minutes. The platelets were washed in PBS/BSA 01%, fixed in 1% paraformaldehyde and then analyzed as described above. For double labeling to concomitantly identify the platelet population, 5 μl of FITC-anti-CD61 antibody were added for incubation together with PE-anti-CD62P antibody.
For flow cytometry measurement, the PMN (containing mainly neutrophils) and platelet populations were identified by live gating based on forward- versus side-scatter parameters and specific staining with FITC-anti-CD15 antibody and FITC-anti-CD61 antibody, respectively. The background staining was gated using isotype-matched labeled antibodies. The intensity of expression of CD11b and CD62P was represented by mean fluorescence intensity (MFI).

For another experiment, the system named is arthritic Lewis rats. Kind of experiment: Joint inflammation and bone destruction in Rat-AIA (CFA-induced arthritis). It is filed as in vivo. As for the experimental part:
Lewis male rats were used to examine the effect of Dextran Sulfate combination with aggrastat (molecular weight 40,000 and 5,000) for the treatment of arthritis. Arthritis was induced in adult male Lewis rats (200-225 gm) by an intradermal injection of complete Freund's adjuvant (CFA) at the base of the tail on the dorsal side. The CFA (100 mg dried and heat killed Mycobacterium butyricum (Difco, Detroit, Mich.) emulsified in 10 ml sterile mineral oil) was prepared by grinding the bacteria powder with a mortar and pestle until the bacterial cell wall turned from a light beige to an eggshell white powder. The mineral oil was then slowly mixed into the bacterial cell wall using the mortar and pestle. All animals in each experiment were challenged with the same preparation of adjuvant and nearly 100% of the animals developed arthritis. Dextran Sulfate was obtained from Sigma Aldrich Corp and Aggrastat was purchased from the pharmacy. Dextran Sulfate was dissolved in aggrastat. The drug treatment started on day 10 post-immunization, the time of disease onset, and continued until sacrifice. The dose of Dextran Sulfate was 20 & 10 mg/Kg/per day per 150-200 g rat. The inflammatory response was assesed by the measurement of paw volume. Paw volume appears to be very consistent and gave slow increasing arthritis over time. Paw volumes were measured every day until sacrifice using Plethysmometer (IITC). After the sacrifice/euthanasia, limbs were removed and processed for;
a) histological evaluations: Only three animals were used per group. Sections were stained with Eosin and hematoxylin to identify various regions within the inflamed limb. Untreated controls have intact cartilage layer and the bone (Score 0) and clear synovium without pannus. Arthritic controls had no defined cartilage bone, and have pannus layer and significant inflammation (Score 5). Enbrel was used as positive control. […] We gave a score of 2.
b) Paw Swelling: Each paw was measured for water displacement using plethysmometer. Paw volume was measured every day.
Continuous treatment of Dextran Sulfate therapies from disease onset affected paw swelling in arthritic rats. All adjuvant-challenged rats developed AA between days 10-12. […] While inflammation was decreased in these treatment groups, we observed a greater effect for these drugs in prevention of bone and cartilage destruction.

For the molecule `CC(=O)Oc1ccccc1C(=O)O` [Aspirin, reference compound], the “inhibition of NM3014 induced platelet activation” value in experiment [1] is reported as “inhibition of platelet activation much below the control levels”; in experiment [1] (listed as aspirin), “downregulated activation of platelets much below control levels”. For the molecule Enbrel [reference compound], the histological score in the experiment with arthritic Lewis rats (Score 0 untreated controls, Score 5 arthritic controls) turned out to be 2. For Dextran Sulfate [Dextran Sulfate 5,000], the “paw swelling (paw volume, plethysmometer)” value with arthritic Lewis rats (with Aggrastat, compared to untreated controls) is recorded as “decreased the inflammation”.
